# Data reported in PubChem BioAssay AID1745844 (Carcinogenic Potency Database (CPDB), 2022).
# Activity calls are given as the source filed them. How the calls were made is not given here.
# Test system: rodent lifetime carcinogenesis bioassay, tumor incidence TD50
# Assay: chronic cancer bioassays in animals – CPDB, compiled studies (AID 1745844)
smiles,measurement,setting,value
CN(C)CCC(c1ccc(Cl)cc1)c1ccccn1 (centres undefined),carcinogen call,"mouse, strain B6C3F1, females, by gavage, site: any site (literature study), lesion: several types, types named in the paper, dosed 103 weeks, study length 104 weeks",negative (inactive)
same,TD50,"mouse, strain B6C3F1, males, by gavage, site: adrenal capsule, lesion: adenoma, NOS, dosed 103 weeks, study length 104 weeks",84 mg/kg/day (inactive)
same,TD50,"mouse, strain B6C3F1, males, by gavage, site: any site (literature study), lesion: several types, types named in the paper, dosed 103 weeks, study length 104 weeks",54.1 mg/kg/day
same,TD50,"mouse, strain B6C3F1, males, by gavage, site: liver, lesion: hepatocellular adenoma + hepatocellular carcinoma + neoplastic nodule, dosed 103 weeks, study length 104 weeks",101 mg/kg/day
same,TD50,"mouse, strain B6C3F1, males, by gavage, site: subcutaneous tissue, lesion: fibrosarcoma + fibroma + neurofibrosarcoma + sarcoma, NOS, dosed 103 weeks, study length 104 weeks",94.7 mg/kg/day
same,TD50,"mouse, strain B6C3F1, males, by gavage, site: subcutaneous tissue, lesion: fibrosarcoma + neurofibrosarcoma + sarcoma, NOS, dosed 103 weeks, study length 104 weeks",95.2 mg/kg/day
same,TD50,"mouse, strain B6C3F1, males, by gavage, site: subcutaneous tissue, lesion: fibrosarcoma, dosed 103 weeks, study length 104 weeks",140 mg/kg/day
same,carcinogen call,"rat, strain Fischer 344, females, by gavage, site: any site (literature study), lesion: several types, types named in the paper, dosed 103 weeks, study length 104 weeks",negative (inactive)
same,TD50,"rat, strain Fischer 344, females, by gavage, site: liver, lesion: hepatocellular adenoma + hepatocellular carcinoma + neoplastic nodule, dosed 103 weeks, study length 104 weeks",3180 mg/kg/day
same,carcinogen call,"rat, strain Fischer 344, females, in feed, site: liver, lesion: neoplastic nodule, dosed 106 weeks, study length 128 weeks",negative (inactive)
same,carcinogen call,"rat, strain Fischer 344, males, by gavage, site: any site (literature study), lesion: several types, types named in the paper, dosed 103 weeks, study length 104 weeks",negative (inactive)
same,TD50,"rat, strain Fischer 344, males, by gavage, site: liver, lesion: hepatocellular adenoma + hepatocellular carcinoma + neoplastic nodule, dosed 103 weeks, study length 104 weeks",208 mg/kg/day
same,carcinogen call,"rat, strain Fischer 344, males, in feed, site: liver, lesion: neoplastic nodule, dosed 106 weeks, study length 128 weeks",negative (inactive)
CCCCCCCCCCN(C)N=O,carcinogen call,"rat, strain Fischer 344, males, by gavage, site: any site (literature study), lesion: several types, types named in the paper, dosed 30 weeks, study length 102 weeks",positive
same,TD50,"rat, strain Fischer 344, males, by gavage, site: forestomach, lesion: carcinoma, dosed 30 weeks, study length 102 weeks",46.6 mg/kg/day
same,TD50,"rat, strain Fischer 344, males, by gavage, site: forestomach, lesion: papilloma, dosed 30 weeks, study length 102 weeks",46.6 mg/kg/day
same,TD50,"rat, strain Fischer 344, males, by gavage, site: liver, lesion: hepatocellular carcinoma, dosed 30 weeks, study length 102 weeks",22.7 mg/kg/day
same,TD50,"rat, strain Fischer 344, males, by gavage, site: lung, lesion: adenocarcinoma, dosed 30 weeks, study length 102 weeks",8.32 mg/kg/day
same,TD50,"rat, strain Fischer 344, males, by gavage, site: lung, lesion: adenoma, dosed 30 weeks, study length 102 weeks",14.7 mg/kg/day
same,TD50,"rat, strain Fischer 344, males, by gavage, site: nasal cavity, lesion: several types, types named in the paper, dosed 30 weeks, study length 102 weeks",46.6 mg/kg/day
same,TD50,"rat, strain Fischer 344, males, by gavage, site: urinary bladder, lesion: transitional-cell carcinoma, dosed 30 weeks, study length 102 weeks",1.26 mg/kg/day
CC(O)CCl (centres undefined),carcinogen call,"mouse, strain B6C3F1, females, in drinking water, site: any site (literature study), lesion: several types, types named in the paper, dosed 105 weeks, study length 105 weeks",negative (inactive)
same,TD50,"mouse, strain B6C3F1, females, in drinking water, site: liver, lesion: hepatocellular adenoma + hepatoblastoma + hepatocellular carcinoma, dosed 105 weeks, study length 105 weeks",1040 mg/kg/day
same,carcinogen call,"mouse, strain B6C3F1, males, in drinking water, site: any site (literature study), lesion: several types, types named in the paper, dosed 104 weeks, study length 104 weeks",negative (inactive)
same,carcinogen call,"rat, strain Fischer 344, females, in drinking water, site: any site (literature study), lesion: several types, types named in the paper, dosed 104 weeks, study length 104 weeks",negative (inactive)
same,TD50,"rat, strain Fischer 344, females, in drinking water, site: liver, lesion: hepatocellular adenoma + hepatoblastoma + hepatocellular carcinoma, dosed 104 weeks, study length 104 weeks",707 mg/kg/day
same,carcinogen call,"rat, strain Fischer 344, males, in drinking water, site: any site (literature study), lesion: several types, types named in the paper, dosed 104 weeks, study length 104 weeks",negative (inactive)
same,TD50,"rat, strain Fischer 344, males, in drinking water, site: liver, lesion: hepatocellular adenoma + hepatoblastoma + hepatocellular carcinoma, dosed 104 weeks, study length 104 weeks",427 mg/kg/day
CCCC[N+](=O)[O-],carcinogen call,"rat, strain Fischer 344, males, by gavage, site: liver, lesion: one or several types, types not named, dosed 50 weeks, study length 83 weeks",negative (inactive)
